“And” between values parts separate entries of the source, which are not always exact repeats. Equal entries are not always repeated. “Also recorded” adds a separate entry of the source. Oligonucleotides are written 5' to 3', each unit as a sugar letter and its base; * is a phosphorothioate linkage, no mark a phosphodiester; rarer units and linkages stand in square brackets, end groups in braces. Plain capitals give the bases only. e = 2'-O-(2-methoxyethyl) (MOE); [5mC] = 5-methylcytosine; d = 2'-deoxy (DNA)
What was measured:
[1] = tested on: 27 nucleotide fragment of bacterial 16S ribosomal RNA incorporating the A-site; assay: ESI-FT-ICR mass spectrometry detection of non-covalent ligand complexes with 16S RNA fragment; assay type: binding; conditions: for relative binding affinity from comparison of ion abundance of binary complexes: 16S RNA fragment; for relative binding affinity from comparison of ion abundance of binary complexes / ion abundance of binary complex relative to unbound 16S RNA: mass spectrometry; for mode of binding interaction of two ligands for the target RNA: ligand pair mixed with 5 μM 16S RNA fragment, presence and abundance of ternary complex; for ion abundance of binary complex relative to unbound 16S RNA: 200 μM ligand, 5 μM target 16S RNA fragment
Description: Ligands bind competitively for a target when the binding of one ligand prevents the binding of the other ligand is the result of the ligands binding to the target at the same location. In this situation, the mixture contains an equilibrium of two binary complexes, one of which being one ligand bound to the target and the other being the other ligand bound to the target. The ligand having the greater affinity for the target will predominate and thus have higher signal intensity for its binary complex with the target compared to the other ligand. Competitive binding interaction between two ligands is determined according to methods of the invention by analyzing the mixture by mass-spectrometry to detect the presence or lack of signal corresponding to a ternary complex where both ligands are bound to the target at the same time. The lack of signal for a ternary complex indicates a competitive binding interaction between the two ligands while the presence of the signal indicates a non-competitive interaction.
Ligands bind concurrently when the binding of one ligand to the target is unaffected by the binding of the other and is a consequence of the ligands binding to the target at distinct sites. […] The ligand having the greater affinity for the target will have higher signal intensity for its binary complex with the target compared to the other ligand. […] Particularly, the absolute ion abundance of the ternary complex (TL1L2) is compared to the relative ion abundance of the binary complexes (TL1 and TL2) which contribute to the formation of the ternary complex with respect to the unbound target (TL1×TL2/T). Since there are two binary complexes contributing the formation of the ternary complex, the comparison is with the sum of the two contributing binary complexes i.e. TL1×TL2/T+TL2×TL1/T. If the absolute ion abundance of the ternary complex is equal to the sum of the relative ion abundance of the contributing binary complexes, then the two ligands concurrently bind to the target substrate. […] The relative ion abundance of the ternary complex (16S+2−DOS+DT) with respect to the unbound 16S target RNA (16S) is equal, within limits of error, to the sum of the relative ion abundance of the contributing binary complex ((16S+DT)×(16S+2−DOS)) with respect to the unbound target (16S) and the contributing binary complex ((16S+2−DOS)+(16S+DT)) with respect to the unbound target (16S).
All MS experiments were performed by using an Apex II 70e ESI-FT-ICR MS (Bruker Daltonics, Billerica, Mass.) with an actively shielded 7 tesla superconducting magnet. RNA solutions were prepared in 50 mM NH4OAc (pH 7), mixed with 10% isopropanol to aid desolvation, and infused at a rate of 1.5 μL/min by using a syringe pump. Ions were formed in a modified electrospray source (Analytica, Branford, Conn.) by using an off-axis grounded electrospray probe positioned about 1.5 cm from the metallized terminus of the glass desolvation capillary biased at 5,000 V. A countercurrent flow of dry […] gas heated to 150° C. was used to assist in the desolvation process. Ions were accumulated in an external ion reservoir comprised of a radio frequency-only hexapole, a skimmer cone, and an auxiliary electrode for 1,000 ms before transfer into the trapped ion cell for mass analysis. Each spectrum was the result of the co-addition of 64 transients comprised of 524,288 data points acquired over a […] bandwidth, resulting in a 1.2-sec detection interval. All aspects of pulse sequence control, data acquisition, and postacquisition processing were performed by using a Bruker Daltonics data station running XMASS Version 4.0 on a Silicon Graphics (Mountain View, Calif.) R5000 computer.
RNA binding ligands are selected from a set of compounds using mass spectrometry. The RNA used for the target molecule is an RNA whose electrospray ionization properties have been optimized in conjunction with optimization of the electrospray ionization and desolvation conditions. […]

human CD40 mRNA = assay: Inhibition of CD40 mRNA levels by oligonucleotides (real-time RT-PCR); assay type: cell-based; parameters: concentration or dose not given beside the values; conditions: for % Inhibition (Inhibition of CD40 mRNA Levels by Chimeric Phosphorothioate Oligonucleotides): 2'-MOE gapmers, 18 nucleotides, phosphorothioate throughout, averaged from three experiments; for % INHIB. (Inhibition of CD40 mRNA Levels by Phosphorothioate Oligodeoxynucleotides): oligodeoxynucleotides with phosphorothioate backbones throughout, averages from three experiments
Outline: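 Cells at ~80% confluency were transfected with oligonucleotide at 150 nM final using Lipofectin 3.75 μg/ml for 4 h and harvested 16 h after treatment. Poly(A)+ mRNA was taken for TaqMan real-time RT-PCR of CD40, and percent inhibition was derived from a standard curve of untreated control mRNA.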

Molecule	% Inhibition (Inhibition of CD40 mRNA Levels by Chimeric Phosphorothioate Oligonucleotides) (human CD40 mRNA)	% INHIB. (Inhibition of CD40 mRNA Levels by Phosphorothioate Oligodeoxynucleotides) (human CD40 mRNA)	also measured
NN1CN(SCc2ccccc2)C=N1 [2-amino-4-benzylthio-1,2,4-triazole]			ions of ligand adduct with RNA target observed ([1]; RNA target 5 micromolar, ligand 100 micromolar, ammonium as standard ligand): also seen
Nc1cccc2nc(C3CCNCC3)[nH]c12 [Ibis-326732, 4-amino-2-piperidin-4-ylbenzimidazole]			relative binding affinity from comparison of ion abundance of binary complexes [1]: greater affinity than glucosamine; mode of binding interaction of two ligands for the target RNA [1]: competitive displacement of glucosamine; also recorded: competitive binders
N[C@H]1C(O)O[C@H](CO)[C@@H](O)[C@@H]1O (stereo partly shown) [glucosamine, reference compound]			mode of binding interaction of two ligands for the target RNA [1]: competitive binders; also recorded: displaced from the RNA by addition of a benzimidazole compound
N[C@@H]1C[C@H](N)[C@@H](O)C(O)[C@H]1O (stereo partly shown) [2-DOS, 2-deoxystreptamine, reference compound]			relative binding affinity from comparison of ion abundance of binary complexes [1]: greater binding affinity for the target RNA than DT; mode of binding interaction of two ligands for the target RNA [1]: concurrent binding interaction; also recorded: cooperative binding
N[C@@H](CO)C(=O)N1CCNCC1 [IBIS-326611, (2S)-2-amino-3-hydroxy-1-piperazinylpropan-1-one]			ion abundance of binary complex relative to unbound 16S RNA [1]: 14.7% and 27.8%
1-{2-[(3R)-4-((2S)-2-amino-3-hydroxypropanoyl)-3-methylpiperazinyl]-2-oxoethyl}-5-methyl-1,3-dihydropyrimidine-2,4-dione [IBIS-271583]			ion abundance of binary complex relative to unbound 16S RNA [1]: 27.8%; ion abundance of binary complex relative to unbound 16S RNA ([1]; listed as IBIS-271483): 52.4%; relative binding affinity from comparison of ion abundance of binary complexes [1]: greater affinity for 16S than either parent compound; relative binding affinity from comparison of ion abundance of binary complexes ([1]; listed as IBIS-271483): greater affinity for the target 16S RNA than either of the parent compounds
19240 (antisense e[5mC]*eT*eA*eG*dG*dT*dT*dG*dG*dG*dG*dT*dC*dG*e[5mC]*eA*eG*eT) [compound 19240]	36.32%		
18680 (DNA dC*dT*dG*dT*dT*dG*dC*dA*dC*dA*dA*dC*dC*dA*dG*dG*dT*dC; antisense) [compound 18680]		18.76%	
19216 (DNA eG*e[5mC]*eA*eA*dG*dC*dA*dG*dC*dC*dC*dC*dA*dG*eA*eG*eG*eA; antisense) [compound 19216]	65.80%		
19258 (antisense eT*eG*eG*eG*dC*dA*dG*dG*dG*dC*dT*dC*dG*dC*eA*eG*eA*eT) [compound 19258]	0.00%		
19285 (eT*eG*eG*eA*dG*dC*dA*dG*dC*dA*dG*dT*dG*dT*eT*eG*eG*eA; antisense) [compound 19285]	15.17%		
18641 (DNA dT*dC*dA*dC*dT*dC*dA*dC*dC*dA*dG*dT*dT*dT*dC*dT*dG*dT; antisense) [compound 18641]		0.00%	
Nc1n[nH]c(N)n1 [DT, 3,5-diamino-1,2,4-triazole, reference compound]			mode of binding interaction of two ligands for the target RNA [1]: concurrent binding interaction; mode of binding interaction of two ligands for the target RNA ([1]; listed as 3,5-DT): cooperative binding; mode of binding interaction of two ligands for the target RNA ([1]; listed as 3,5-diamino-1,2,4-triazole): concurrent binding
19288 (e[5mC]*eG*eG*eT*dT*dG*dG*dC*dA*dT*dC*dC*dA*dT*eG*eT*eA*eA; antisense) [compound 19288]	34.49%		
18639 (DNA dC*dT*dG*dT*dC*dC*dT*dG*dG*dC*dT*dG*dG*dC*dA*dC*dA*dA; antisense) [compound 18639]		4.99%	
19223 (antisense eG*e[5mC]*eA*eG*dT*dG*dG*dG*dT*dG*dG*dT*dT*dC*eT*eG*eG*eA) [compound 19223]	73.70%		
18632 (DNA dT*dC*dT*dG*dG*dA*dT*dG*dG*dA*dC*dA*dG*dC*dG*dG*dT*dC; antisense) [compound 18632]		0.00%	
19270 (eG*eT*e[5mC]*eT*dT*dG*dT*dT*dT*dG*dT*dG*dC*dC*eT*eG*e[5mC]*e[5mC]; antisense) [compound 19270]	68.95%		
19263 (eT*e[5mC]*eG*eA*dA*dA*dG*dC*dA*dG*dA*dT*dG*dA*e[5mC]*eA*e[5mC]*eA; antisense) [compound 19263]	59.28%		
19282 (eG*eA*eT*e[5mC]*dG*dT*dC*dG*dG*dG*dA*dA*dA*dA*eT*eT*eG*eA; antisense) [compound 19282]	0.00%		
19230 (antisense eG*eT*eG*e[5mC]*dA*dG*dT*dC*dA*dC*dT*dC*dA*dC*e[5mC]*eA*eG*eT) [compound 19230]	82.04%		
18663 (DNA dG*dA*dG*dC*dG*dG*dT*dG*dC*dA*dG*dG*dA*dC*dA*dC*dA*dG; antisense) [compound 18663]		0.00%	
18640 (DNA dC*dT*dC*dA*dC*dC*dA*dG*dT*dT*dT*dC*dT*dG*dT*dC*dC*dT; antisense) [compound 18640]		0.00%	
19261 (eG*eA*eT*eG*dA*dC*dA*dC*dA*dT*dT*dG*dG*dA*eG*eA*eA*eG; antisense) [compound 19261]	13.81%		
18702 (DNA dC*dT*dG*dT*dC*dT*dC*dT*dC*dC*dT*dG*dC*dA*dC*dT*dG*dA; antisense) [compound 18702]		0.00%	
18645 (DNA dA*dT*dT*dC*dC*dG*dT*dT*dT*dC*dA*dG*dT*dG*dA*dA*dC*dT; antisense) [compound 18645]		0.00%	
18642 (DNA dG*dT*dG*dC*dA*dG*dT*dC*dA*dC*dT*dC*dA*dC*dC*dA*dG*dT; antisense) [compound 18642]		0.00%	

Source: patent US20050142581A1, “Microrna as ligands and target molecules” (priority 2003, published 2005)
